As a reminder, the Ki is the equilibrium dissociation constant of an inhibitor or competing ligand from its target.

Structures are written as SMILES.

Results on one molecule are retold here after article PMC7915449, “Differential Regulation of Bilastine Affinity for Human Histamine H1 Receptors by Lys 179 and Lys 191 via Its Binding Enthalpy and Entropy” (International Journal of Molecular Sciences, 2021).

Assay [1] deals with T1, K191A (Lys191 mutant of H1 receptor to alanine) (Homo sapiens, UniProt P35367, K191A).
T1 construct: 3xHA (three copies of hemagglutinin YPYDVPDYA) (N); expressed in transfected cells; membrane preparations
The experiment in a line: [3H]mepyramine displacement binding, membranes of CHO cells expressing K191A mutant. The protocol:
(§1) To evaluate changes in the binding affinity of bilastine for H1 receptors by mutations of Lys179^ECL2 and/or Lys191^5.39, the IC50 for bilastine was first obtained from the displacement curves for the binding of 3 nM [^3H] mepyramine to membrane preparations of CHO cells expressing wild-type human H1 receptors (WT), Lys179^ECL2 or Lys191^5.39 mutants of WT to alanine (K179A and K191A), and both Lys179^ECL2 and Lys191^5.39 mutants of WT to alanine (K179A + K191A) at 4 °C–37 °C (Figure 3). The Ki values for bilastine were then calculated from the IC50, as described in the materials and methods section.
CHO cells stably expressing WT, K179A, K191A, and K179A + K191A were cultured, and membrane preparations were obtained as described previously. The receptor binding assay with [^3H] mepyramine, a radioligand for H1 receptors, was performed in accordance with the methods described previously. Briefly, aliquots (0.1 mL) of membrane preparations (approximately 50 µg of membrane proteins) were incubated with 3 nM [^3H] mepyramine in the presence or absence of various concentrations of bilastine for 3 h at 37 °C, 24 h at 25 °C and 14 °C, and 7 days at 4 °C in normal HEPES buffer (NaCl, 120 mM; KCl, 5.4 mM; MgCl2, 1.6 mM; CaCl2, 1.8 mM, D-glucose, 11 mM; and HEPES, 25 mM; pH 7.4 at 37 °C; final volume 1 mL). The reaction mixture was filtered through glass fiber filters, and the radioactivity trapped on the filters was determined by scintillation counting. All determinations were made in quadruplicate. The protein content in the membrane preparations was determined using a BCA protein assay kit (Pierce, Rockford, IL, USA).
(§2) The IC50 for bilastine was determined by fitting the displacement curves to the one-site model (KaleidaGraph; Synergy Software, Reading, PA, USA):B = 100 − P × C/(C + IC50) where B is the amount of [^3H] mepyramine bound, C is the free concentration of bilastine, and P is the percentage of the binding sites of bilastine. […]

Assay [2] addresses T2, K179A (Lys179 mutant of H1 receptor to alanine) (Homo sapiens, UniProt P35367, K179A).
T2 construct: 3xHA (three copies of hemagglutinin YPYDVPDYA) (N); expressed in transfected cells; membrane preparations
The experiment in a line: [3H]mepyramine displacement binding, membranes of CHO cells expressing K179A mutant. As to the method: as §1
(§3) CHO cells stably expressing WT, K179A, K191A, and K179A + K191A were cultured, and membrane preparations were obtained as described previously. […] The reaction mixture was filtered through glass fiber filters, and the radioactivity trapped on the filters was determined by scintillation counting. […] The protein content in the membrane preparations was determined using a BCA protein assay kit (Pierce, Rockford, IL, USA).
as §2

For assay [3], the target named is T3, wild-type human H1 receptors (WT) (Homo sapiens, UniProt P35367).
T3 construct: 3xHA (three copies of hemagglutinin YPYDVPDYA) (N); membrane preparations
The assay can be described thus: biochemical. The format is binding.

For assay [4], the system named is wild-type human H1 receptors (WT). The experiment in a line: biochemical. It is filed as binding. As to conditions: mutants K179A, K191A, K179A + K191A versus WT, 25 °C; significant.
For assay [5], the target named is T4, K179A + K191A (both Lys179 and Lys191 mutant of H1 receptor to alanine) (Homo sapiens, UniProt P35367, K179A/K191A).
T4 construct: 3xHA (three copies of hemagglutinin YPYDVPDYA) (N); expressed in transfected cells; membrane preparations
The experiment in a line: [3H]mepyramine displacement binding, membranes of CHO cells expressing K179A + K191A mutant. As to the method: as §1, §3, §2

Setting [6] is: K191A versus WT, van 't Hoff analysis 4-37 °C, significant.

T1 sequence (P35367 whole entry K191A): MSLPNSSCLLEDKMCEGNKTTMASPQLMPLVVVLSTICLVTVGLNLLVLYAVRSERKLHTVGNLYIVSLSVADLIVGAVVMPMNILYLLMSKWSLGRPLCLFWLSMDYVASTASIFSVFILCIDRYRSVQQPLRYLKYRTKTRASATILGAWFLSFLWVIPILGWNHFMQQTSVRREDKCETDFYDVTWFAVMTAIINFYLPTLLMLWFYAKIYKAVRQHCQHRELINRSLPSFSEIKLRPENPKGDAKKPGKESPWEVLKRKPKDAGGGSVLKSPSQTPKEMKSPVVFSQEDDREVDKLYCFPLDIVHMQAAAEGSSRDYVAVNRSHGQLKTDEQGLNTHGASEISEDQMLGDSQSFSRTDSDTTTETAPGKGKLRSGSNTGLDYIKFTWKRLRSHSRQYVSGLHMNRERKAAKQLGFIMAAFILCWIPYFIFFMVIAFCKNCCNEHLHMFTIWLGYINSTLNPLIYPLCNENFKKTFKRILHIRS
T2 sequence (P35367 whole entry K179A): as the sequence (P35367 whole entry K191A) above, with K179A, A191K counted along it
T4 sequence (P35367 whole entry K179A/K191A): as the sequence (P35367 whole entry K191A) above, with K179A counted along it
T3 sequence (P35367 whole entry): as the sequence (P35367 whole entry K191A) above, with A191K counted along it

Turning to `CCOCCn1c(C2CCN(CCc3ccc(C(C)(C)C(=O)O)cc3)CC2)nc2ccccc21` [bilastine, Bilastine], the Ki is 2.57 ± 0.16 nM in assay [1], 5.2 ± 1.18 nM in assay [2], 1.92 ± 0.08 nM in assay [3] and 7.96 ± 0.76 nM in assay [5]. Moreover, the “increase in enthalpy-dependent binding forces (∆H°) by mutation” value in assay [1] (setting [6]) worked out at 8.1 kJ/mol. In addition, the “reduction in the entropy-dependent binding forces (∆T∆S°) by mutation” value in assay [1] (setting [6]) was found to be 8.2 kJ/mol; in assay [5] (K179A + K191A versus WT, van 't Hoff analysis 4-37 °C, not significant), 2.2 kJ/mol. In addition, the “reduction in the enthalpy-dependent binding forces (∆H°) by mutation” value in assay [2] (K179A versus WT, van 't Hoff analysis 4-37 °C, not significant) is 1.9 kJ/mol. Besides, the “reduction of affinity for H1 receptors following mutation of Lys179 and/or Lys191” value in assay [4] lay in the range of 1.3 to 4.1 times.
